IC50 data for 33 compounds are collected here from patent US8541588B2, “Sulfonamide derivatives” (Pfizer Limited, priority 2009, dated 2013).

SMILES strings stand for the structures.

For this experiment, the target named is T1, Nav1.7 (or SCN9A) channel; HEK cells stably transfected with hSCN9A (Homo sapiens, UniProt Q15858).
T1 construct: expressed in transfected cells
T1 sequence (Q15858 whole entry): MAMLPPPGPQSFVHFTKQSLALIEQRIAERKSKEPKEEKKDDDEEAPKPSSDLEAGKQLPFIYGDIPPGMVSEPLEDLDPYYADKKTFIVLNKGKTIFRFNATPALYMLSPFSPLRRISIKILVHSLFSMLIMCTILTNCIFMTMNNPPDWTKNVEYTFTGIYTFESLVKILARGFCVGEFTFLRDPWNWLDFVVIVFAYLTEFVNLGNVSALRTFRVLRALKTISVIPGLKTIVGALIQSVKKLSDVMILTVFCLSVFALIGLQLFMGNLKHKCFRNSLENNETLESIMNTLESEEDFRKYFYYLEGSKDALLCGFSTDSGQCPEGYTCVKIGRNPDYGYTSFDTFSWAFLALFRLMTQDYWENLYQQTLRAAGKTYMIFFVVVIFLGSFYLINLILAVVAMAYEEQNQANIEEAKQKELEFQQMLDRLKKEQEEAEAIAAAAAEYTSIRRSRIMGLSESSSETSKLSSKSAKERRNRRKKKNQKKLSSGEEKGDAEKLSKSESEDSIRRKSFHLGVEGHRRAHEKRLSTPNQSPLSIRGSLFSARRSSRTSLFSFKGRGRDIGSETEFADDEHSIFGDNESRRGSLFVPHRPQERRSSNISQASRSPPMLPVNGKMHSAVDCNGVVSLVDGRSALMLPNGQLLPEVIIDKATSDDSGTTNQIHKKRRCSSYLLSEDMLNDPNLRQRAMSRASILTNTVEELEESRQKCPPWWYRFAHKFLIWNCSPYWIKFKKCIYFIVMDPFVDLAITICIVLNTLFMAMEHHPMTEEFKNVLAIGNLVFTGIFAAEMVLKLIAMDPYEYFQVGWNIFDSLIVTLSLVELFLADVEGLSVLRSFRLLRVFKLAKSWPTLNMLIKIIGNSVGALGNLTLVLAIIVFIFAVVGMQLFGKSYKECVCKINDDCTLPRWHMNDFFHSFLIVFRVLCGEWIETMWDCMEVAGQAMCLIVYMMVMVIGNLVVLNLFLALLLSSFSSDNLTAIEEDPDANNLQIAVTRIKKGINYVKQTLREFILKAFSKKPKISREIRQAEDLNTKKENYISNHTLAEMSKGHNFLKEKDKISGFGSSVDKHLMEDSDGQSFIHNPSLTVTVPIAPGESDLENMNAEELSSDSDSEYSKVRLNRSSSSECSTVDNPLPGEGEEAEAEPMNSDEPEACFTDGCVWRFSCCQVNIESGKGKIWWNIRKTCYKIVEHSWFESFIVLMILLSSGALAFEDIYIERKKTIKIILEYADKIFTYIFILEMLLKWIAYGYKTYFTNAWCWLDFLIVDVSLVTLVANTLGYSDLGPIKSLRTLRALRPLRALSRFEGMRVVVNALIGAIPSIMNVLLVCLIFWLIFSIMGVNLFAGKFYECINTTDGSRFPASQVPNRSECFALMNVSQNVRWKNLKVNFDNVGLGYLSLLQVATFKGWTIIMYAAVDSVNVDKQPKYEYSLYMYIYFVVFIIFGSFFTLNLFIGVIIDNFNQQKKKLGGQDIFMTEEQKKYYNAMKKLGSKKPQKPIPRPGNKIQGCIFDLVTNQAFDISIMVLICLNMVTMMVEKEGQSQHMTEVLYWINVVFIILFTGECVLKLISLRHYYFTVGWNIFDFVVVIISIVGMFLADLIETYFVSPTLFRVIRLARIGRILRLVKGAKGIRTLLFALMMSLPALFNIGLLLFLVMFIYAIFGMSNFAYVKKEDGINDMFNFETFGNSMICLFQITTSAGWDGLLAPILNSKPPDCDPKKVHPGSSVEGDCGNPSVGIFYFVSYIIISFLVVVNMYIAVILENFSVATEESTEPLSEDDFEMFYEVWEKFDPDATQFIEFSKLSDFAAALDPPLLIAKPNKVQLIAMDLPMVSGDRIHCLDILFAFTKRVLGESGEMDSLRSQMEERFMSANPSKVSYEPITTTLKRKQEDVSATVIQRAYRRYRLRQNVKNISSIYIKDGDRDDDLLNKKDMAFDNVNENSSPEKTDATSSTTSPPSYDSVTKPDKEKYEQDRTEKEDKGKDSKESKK
As to the kind of experiment: Nav1.7 block, PatchXpress 7000 automated whole-cell voltage clamp, estimated IC50 (EIC50). The experiment is classed as cell-based. Particulars: estimated IC50; hSCN9A HEK cells, PatchXpress platform; Examples 283-814.
Consider `N#Cc1cc(S(=O)(=O)Nc2ncns2)ccc1Oc1ccc(-n2cc(CO)cn2)cc1` [Example 288, 3-cyano-4-{4-[4-(hydroxymethyl)-1H-pyrazol-1-yl]phenoxy}-N-1,2,4-thiadiazol-5-ylbenzenesulfonamide], for which the IC50 (in general, the concentration at which inhibition is half-maximal) was over 1 µM.

In the case of `N#Cc1cc(S(=O)(=O)Nc2ncns2)ccc1Oc1ccc(I)cc1-c1cn[nH]c1` [Example 289, 3-cyano-4-[4-iodo-2-(1H-pyrazol-4-yl)phenoxy]-N-1,2,4-thiadiazol-5-ylbenzenesulfonamide], the IC50 was 0.39 µM.

With `CCn1nc(C(F)(F)F)cc1-c1cccc(Oc2ccc(S(=O)(=O)Nc3nc(C)ns3)cc2C#N)c1` [Example 290, 3-cyano-4-{3-[1-ethyl-3-(trifluoromethyl)-1H-pyrazol-5-yl]phenoxy}-N-(3-methyl-1,2,4-thiadiazol-5-yl)benzenesulfonamide], the IC50 was 2 µM.

Regarding `CCn1nc(C(F)(F)F)cc1-c1ccc(Oc2ccc(S(=O)(=O)Nc3nc(C)ns3)cc2C#N)cc1` [Example 291, 3-cyano-4-{4-[1-ethyl-3-(trifluoromethyl)-1H-pyrazol-5-yl]phenoxy}-N-(3-methyl-1,2,4-thiadiazol-5-yl)benzenesulfonamide], the IC50 was 2.5 µM.

Regarding `Cn1nc(C(F)(F)F)cc1-c1ccc(Oc2ccc(S(=O)(=O)Nc3nccs3)cc2C#N)c(C#N)c1` [Example 292, 3-cyano-4-{2-cyano-4-[1-methyl-3-(trifluoromethyl)-1H-pyrazol-5-yl]phenoxy}-N-1,3-thiazol-2-ylbenzenesulfonamide], the IC50 is 0.044 µM.

As to `Cn1nc(C(F)(F)F)cc1-c1ccc(Oc2ccc(S(=O)(=O)Nc3ncns3)cc2C#N)c(C#N)c1` [Example 293, 3-cyano-4-{2-cyano-4-[1-methyl-3-(trifluoromethyl)-1H-pyrazol-5-yl]phenoxy}-N-1,2,4-thiadiazol-5-ylbenzenesulfonamide], the IC50 was 0.093 µM.

Take `Cc1nsc(NS(=O)(=O)c2cc(Cl)c(Oc3ccc(Cl)cc3-c3ccnn3C)cc2F)n1` [Example 294, 5-chloro-4-[4-chloro-2-(1-methyl-1H-pyrazol-5-yl)phenoxy]-2-fluoro-N-(3-methyl-1,2,4-thiadiazol-5-yl)benzenesulfonamide]: the IC50 is 0.034 µM.

Turning to `Cn1nccc1-c1cc(F)ccc1Oc1cc(F)c(S(=O)(=O)Nc2ccncn2)cc1Cl` [Example 295, 5-chloro-2-fluoro-4-[4-fluoro-2-(1-methyl-1H-pyrazol-5-yl)phenoxy]-N-pyrimidin-4-ylbenzenesulfonamide], the IC50 is 0.13 µM.

With `Cn1nc(C(F)(F)F)cc1-c1ccc(Oc2cc(F)c(S(=O)(=O)Nc3nccs3)cc2Cl)c(C#N)c1` [Example 296, 5-chloro-4-{2-cyano-4-[1-methyl-3-(trifluoromethyl)-1H-pyrazol-5-yl]phenoxy}-2-fluoro-N-1,3-thiazol-2-ylbenzenesulfonamide], the half-inhibitory concentration (IC50) is 0.025 µM.

Turning to `Cn1nc(C(F)(F)F)cc1-c1ccc(Oc2cc(F)c(S(=O)(=O)Nc3nncs3)cc2Cl)c(C#N)c1` [Example 297, 5-chloro-4-{2-cyano-4-[1-methyl-3-(trifluoromethyl)-1H-pyrazol-5-yl]phenoxy}-2-fluoro-N-1,3,4-thiadiazol-2-ylbenzenesulfonamide], the concentration for half-maximal inhibition (IC50) was 1 µM.

On to `Cn1nccc1-c1cc(F)ccc1Oc1cc(F)c(S(=O)(=O)Nc2nncs2)cc1Cl` [Example 298, 5-chloro-2-fluoro-4-[4-fluoro-2-(1-methyl-1H-pyrazol-5-yl)phenoxy]-N-1,3,4-thiadiazol-2-ylbenzenesulfonamide], for which the IC50 is 0.14 µM.

Regarding `O=S(=O)(Nc1nncs1)c1cc(Cl)c(Oc2ccc(Cl)cc2-c2ccn[nH]2)cc1F` [Example 300, 5-chloro-4-[4-chloro-2-(1H-pyrazol-5-yl)phenoxy]-2-fluoro-N-1,3,4-thiadiazol-2-ylbenzenesulfonamide], the IC50 is 0.039 µM.

Turning to `Cn1nccc1-c1cc(Cl)ccc1Oc1cc(F)c(S(=O)(=O)Nc2nncs2)cc1F` [Example 301, 4-[4-chloro-2-(1-methyl-1H-pyrazol-5-yl)phenoxy]-2,5-difluoro-N-1,3,4-thiadiazol-2-ylbenzenesulfonamide], the IC50 is 0.28 µM.

Take `O=S(=O)(Nc1nncs1)c1cc(F)c(Oc2ccc(Cl)cc2-c2ccn[nH]2)cc1F` [Example 302, 4-[4-chloro-2-(1H-pyrazol-5-yl)phenoxy]-2,5-difluoro-N-1,3,4-thiadiazol-2-ylbenzenesulfonamide]: the IC50 is 0.16 µM.

In the case of `CC(C)(C)n1nc(C(F)(F)F)cc1-c1ccc(Oc2ccc(S(=O)(=O)Nc3nccs3)c(F)c2)cc1` [Example 303, 4-{4-[1-tert-Butyl-3-(trifluoromethyl)-1H-pyrazol-5-yl]phenoxy}-2-fluoro-N-1,3-thiazol-2-ylbenzenesulfonamide], the IC50 was 0.43 µM.

As to `Cn1nccc1-c1cc(Cl)ccc1Oc1cc(F)c(S(=O)(=O)Nc2nccs2)cc1Cl` [Example 304, 5-chloro-4-[4-chloro-2-(1-methyl-1H-pyrazol-5-yl)phenoxy]-2-fluoro-N-1,3-thiazol-2-ylbenzenesulfonamide], the IC50 was 0.025 µM.

Turning to `CCn1nc(C(F)(F)F)cc1-c1ccc(Oc2cc(F)c(S(=O)(=O)Nc3nccs3)cc2Cl)cc1` [Example 305, 5-chloro-4-{4-[1-ethyl-3-(trifluoromethyl)-1H-pyrazol-5-yl]phenoxy}-2-fluoro-N-1,3-thiazol-2-ylbenzenesulfonamide], the IC50 is 0.097 µM.

Turning to `Cn1cnnc1-c1cc(Cl)ccc1Oc1ccc(S(=O)(=O)Nc2nccs2)cc1F` [Example 306, 4-[4-chloro-2-(4-methyl-4H-1,2,4-triazol-3-yl)phenoxy]-3-fluoro-N-1,3-thiazol-2-ylbenzenesulfonamide], the IC50 was over 1 µM.

With `Cn1ncc(F)c1-c1cc(Cl)ccc1Oc1ccc(S(=O)(=O)Nc2nccs2)cc1F` [Example 307, 4-[4-Chloro-2-(4-fluoro-1-methyl-1H-pyrazol-5-yl)phenoxy]-3-fluoro-N-1,3-thiazol-2-ylbenzenesulfonamide], the IC50 is 0.81 µM.

As for `O=S(=O)(Nc1nccs1)c1ccc(Oc2ccc(Cl)cc2-c2ccn[nH]2)c(F)c1` [Example 308, 4-[4-Chloro-2-(1H-pyrazol-5-yl)phenoxy]-3-fluoro-N-1,3-thiazol-2-ylbenzenesulfonamide], the IC50 is 0.98 µM.

Regarding `Cn1nccc1-c1cc(C2CC2)ccc1Oc1ccc(S(=O)(=O)Nc2nccs2)cc1F` [Example 309, 4-[4-Cyclopropyl-2-(1-methyl-1H-pyrazol-5-yl)phenoxy]-3-fluoro-N-1,3-thiazol-2-ylbenzenesulfonamide], the IC50 is 0.025 µM.

As for `CC(C)Oc1cc(-c2cc(F)ccc2Oc2ccc(S(=O)(=O)Nc3nccs3)cc2C#N)n(C)n1` [Example 310, 3-cyano-4-[4-fluoro-2-(3-isopropoxy-1-methyl-1H-pyrazol-5-yl)phenoxy]-N-1,3-thiazol-2-ylbenzenesulfonamide], the 50% inhibitory concentration (IC50) is over 1 µM.

`CCn1nc(C(F)(F)F)cc1-c1ccc(Oc2ccc(S(=O)(=O)Nc3ncc(F)cc3F)cc2C#N)cc1` [Example 311, 3-cyano-N-(3,5-difluoropyridin-2-yl)-4-{4-[1-ethyl-3-(trifluoromethyl)-1H-pyrazol-5-yl]phenoxy}benzenesulfonamide]: the IC50 was 4.9 µM.

`Cn1nccc1-c1cc(I)ccc1Oc1ccc(S(=O)(=O)Nc2nccs2)cc1C#N` [Example 312, 3-cyano-4-[4-iodo-2-(1-methyl-1H-pyrazol-5-yl)phenoxy]-N-1,3-thiazol-2-ylbenzenesulfonamide]: the IC50 is 0.017 µM.

Take `N#Cc1cc(S(=O)(=O)Nc2ccc(F)cn2)ccc1Oc1ccc(Cl)cc1-c1cn[nH]c1` [Example 314, 4-[4-chloro-2-(1H-pyrazol-4-yl)phenoxy]-3-cyano-N-(5-fluoropyridin-2-yl)benzenesulfonamide]: the IC50 was 0.73 µM.

Consider `N#Cc1cc(S(=O)(=O)Nc2ccc(F)cn2)ccc1Oc1ccc(C(F)(F)F)cc1-c1cn[nH]c1` [Example 315, 3-cyano-N-(5-fluoropyridin-2-yl)-4-[2-(1H-pyrazol-4-yl)-4-(trifluoromethyl)phenoxy]benzenesulfonamide], for which the IC50 is 1.2 µM.

Regarding `CCn1cc(C(F)(F)F)nc1-c1ccc(Oc2ccc(S(=O)(=O)Nc3nccs3)cc2C#N)cc1` [Example 316, 3-cyano-4-{4-[1-ethyl-4-(trifluoromethyl)-1H-imidazol-2-yl]phenoxy}-N-1,3-thiazol-2-ylbenzenesulfonamide], the half-maximal inhibitory concentration (IC50) was 0.74 µM.

Consider `Cc1coc(-c2ccc(Oc3ccc(S(=O)(=O)Nc4nccs4)cc3C#N)cc2)n1` [Example 317, 3-cyano-4-[4-(4-methyl-1,3-oxazol-2-yl)phenoxy]-N-1,3-thiazol-2-ylbenzenesulfonamide], for which the 50% inhibitory concentration (IC50) is 2.2 µM.

For the compound `Cc1coc(-c2cc(Cl)ccc2Oc2ccc(S(=O)(=O)Nc3nccs3)cc2C#N)n1` [Example 318, 4-[4-chloro-2-(4-methyl-1,3-oxazol-2-yl)phenoxy]-3-cyano-N-1,3-thiazol-2-ylbenzenesulfonamide], the IC50 is 1.3 µM.

On to `N#Cc1cc(S(=O)(=O)Nc2nccs2)ccc1Oc1cccc(-n2cccn2)c1` [Example 319, 3-cyano-4-[3-(1H-pyrazol-1-yl)phenoxy]-N-1,3-thiazol-2-ylbenzenesulfonamide], for which the IC50 is 2.5 µM.

As to `Cn1cc(C(F)(F)F)nc1-c1ccc(Oc2ccc(S(=O)(=O)Nc3nccs3)cc2C#N)cc1` [Example 320, 3-cyano-4-{4-[1-methyl-4-(trifluoromethyl)-1H-imidazol-2-yl]phenoxy}-N-1,3-thiazol-2-ylbenzenesulfonamide], the IC50 was 3.3 µM.

In the case of `N#Cc1cc(S(=O)(=O)Nc2nccs2)ccc1Oc1ccc(Cl)cc1-n1nccn1` [Example 321, 4-[4-chloro-2-(2H-1,2,3-triazol-2-yl)phenoxy]-3-cyano-N-1,3-thiazol-2-ylbenzenesulfonamide], the half-inhibitory concentration (IC50) is 0.77 µM.

As for `N#Cc1cc(S(=O)(=O)Nc2nccs2)ccc1Oc1ccc(Cl)cc1-n1ccnn1` [Example 322, 4-[4-chloro-2-(1H-1,2,3-triazol-1-yl)phenoxy]-3-cyano-N-1,3-thiazol-2-ylbenzenesulfonamide], the IC50 is 0.55 µM.
